Common to all, as to format: ADME
The target in data set [1] is T1, UDP-glucuronosyltransferase 2B7 (Homo sapiens, UniProt P16662).
T1 sequence (P16662 whole entry): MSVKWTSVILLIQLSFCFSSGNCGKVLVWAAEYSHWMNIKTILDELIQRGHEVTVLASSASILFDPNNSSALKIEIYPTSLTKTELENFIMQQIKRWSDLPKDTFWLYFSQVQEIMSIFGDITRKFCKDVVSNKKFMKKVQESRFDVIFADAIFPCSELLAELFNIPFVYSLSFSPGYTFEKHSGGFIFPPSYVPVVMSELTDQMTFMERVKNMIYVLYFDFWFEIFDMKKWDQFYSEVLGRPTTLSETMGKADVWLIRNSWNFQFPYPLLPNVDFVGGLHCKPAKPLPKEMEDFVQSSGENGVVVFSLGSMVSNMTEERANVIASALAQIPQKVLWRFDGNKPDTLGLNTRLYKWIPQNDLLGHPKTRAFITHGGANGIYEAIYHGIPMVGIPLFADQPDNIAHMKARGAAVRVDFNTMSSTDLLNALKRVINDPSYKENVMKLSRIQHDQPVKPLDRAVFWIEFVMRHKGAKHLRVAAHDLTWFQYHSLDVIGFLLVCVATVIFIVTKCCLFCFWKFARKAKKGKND
The data set can be described thus: Activity of human recombinant UGT2B7 expressed in insect cells assessed as enzyme mediated glucuronidation in presence of […] naloxone by LC-MS/MS method.

Data set [2] addresses T2, UDP-glucuronosyltransferase 1A9 (Homo sapiens, UniProt O60656).
T2 sequence (O60656 whole entry): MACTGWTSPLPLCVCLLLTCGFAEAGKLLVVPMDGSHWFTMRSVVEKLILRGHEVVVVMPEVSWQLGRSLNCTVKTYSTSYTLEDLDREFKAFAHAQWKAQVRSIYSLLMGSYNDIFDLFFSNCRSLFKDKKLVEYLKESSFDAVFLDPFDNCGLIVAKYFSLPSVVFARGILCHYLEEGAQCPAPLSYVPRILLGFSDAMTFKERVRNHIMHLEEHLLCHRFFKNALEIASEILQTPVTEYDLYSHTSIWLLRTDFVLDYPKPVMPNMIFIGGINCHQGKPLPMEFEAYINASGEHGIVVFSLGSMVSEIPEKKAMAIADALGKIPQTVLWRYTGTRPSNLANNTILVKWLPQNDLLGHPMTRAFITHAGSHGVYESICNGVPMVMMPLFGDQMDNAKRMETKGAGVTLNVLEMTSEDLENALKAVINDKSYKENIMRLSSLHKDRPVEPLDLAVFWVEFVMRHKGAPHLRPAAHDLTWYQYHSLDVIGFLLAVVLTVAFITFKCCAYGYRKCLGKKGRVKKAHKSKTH
The experiment in a line: Activity of human recombinant UGT1A9 expressed in insect cells assessed as intrinsic clearance for enzyme mediated glucuronidation per mg protein by LC-MS/MS method.

Data set [3] deals with Liver microsome. The data set can be described thus: Drug metabolism in human liver microsomes assessed as intrinsic clearance for drug glucuronidation per mg tissue in absence of BSA by LC-MS/MS method. Background: Microsomes from liver hold many membrane-bound enzymes, among them those of drug oxidation.
The nature of data set [4]: Drug metabolism in human kidney microsomes assessed as drug glucuronidation in presence of BSA by LC-MS/MS method.
Data set [5] has as its target T3, UDP-glucuronosyltransferase 1A4 (Homo sapiens, UniProt P22310).
T3 sequence (P22310 whole entry): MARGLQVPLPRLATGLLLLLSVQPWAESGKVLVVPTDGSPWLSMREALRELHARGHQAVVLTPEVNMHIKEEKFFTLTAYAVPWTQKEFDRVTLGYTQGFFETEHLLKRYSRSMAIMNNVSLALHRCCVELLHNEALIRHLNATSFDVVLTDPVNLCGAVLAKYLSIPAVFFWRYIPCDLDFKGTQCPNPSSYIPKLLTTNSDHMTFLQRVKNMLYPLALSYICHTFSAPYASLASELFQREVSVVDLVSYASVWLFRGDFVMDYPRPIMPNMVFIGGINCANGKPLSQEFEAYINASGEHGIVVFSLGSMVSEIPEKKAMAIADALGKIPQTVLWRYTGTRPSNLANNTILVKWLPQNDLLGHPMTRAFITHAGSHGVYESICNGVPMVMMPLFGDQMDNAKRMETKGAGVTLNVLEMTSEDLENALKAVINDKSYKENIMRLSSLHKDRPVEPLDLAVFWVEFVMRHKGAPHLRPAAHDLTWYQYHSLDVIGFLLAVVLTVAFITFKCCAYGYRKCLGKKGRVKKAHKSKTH
The experiment in a line: Activity of human recombinant UGT1A4 expressed in insect cells assessed as enzyme mediated glucuronidation at 500 uM by LC-MS/MS method.

Data set [6] deals with T4, UDP-glucuronosyltransferase 1A8 (Homo sapiens, UniProt Q9HAW9).
T4 sequence (Q9HAW9 whole entry): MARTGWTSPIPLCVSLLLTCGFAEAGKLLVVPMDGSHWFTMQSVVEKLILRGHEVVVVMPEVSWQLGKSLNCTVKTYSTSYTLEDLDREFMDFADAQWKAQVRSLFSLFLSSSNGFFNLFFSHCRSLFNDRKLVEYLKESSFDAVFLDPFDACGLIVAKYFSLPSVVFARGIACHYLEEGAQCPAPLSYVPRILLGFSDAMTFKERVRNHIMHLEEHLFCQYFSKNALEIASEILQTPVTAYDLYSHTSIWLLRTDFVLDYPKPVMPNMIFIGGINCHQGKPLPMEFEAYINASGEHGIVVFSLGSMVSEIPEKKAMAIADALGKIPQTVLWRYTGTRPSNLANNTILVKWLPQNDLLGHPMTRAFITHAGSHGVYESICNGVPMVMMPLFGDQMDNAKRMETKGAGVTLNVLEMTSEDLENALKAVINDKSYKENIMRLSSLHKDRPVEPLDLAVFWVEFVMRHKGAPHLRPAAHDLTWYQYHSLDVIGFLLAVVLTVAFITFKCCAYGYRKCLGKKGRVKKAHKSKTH
The data set can be described thus: Activity of human recombinant UGT1A8 expressed in insect cells assessed as enzyme mediated glucuronidation at 500 uM by LC-MS/MS method.

The target of data set [7] is T4, UDP-glucuronosyltransferase 1A8. The data set can be described thus: Activity of human recombinant UGT1A8 expressed in insect cells assessed as enzyme mediated glucuronidation at 12.5 uM by LC-MS/MS method.
Data set [8] is described as follows: Drug metabolism in human liver microsomes assessed as drug glucuronidation in absence of BSA by LC-MS/MS method.
In data set [9] the test system is Liver microsome. The experiment in a line: Drug metabolism in human liver microsomes assessed as intrinsic clearance for drug glucuronidation per mg tissue in presence of BSA by LC-MS/MS method.

The structures appear in SMILES notation.

`CC1=NN(c2ccccc2)C(=O)C1` [EDARAVONE]: the Drug metabolism entry in data set [1] is “metabolite_not_detected”; in data set [5] it was “metabolite_not_detected”; in data set [6], “metabolite_detected”; in [7], “metabolite_detected”. For the same compound, the CL(high) in [2] came out at 42.4 µL/min/mg. Besides, the CL(low) in data set [2] was 0.8 µL/min/mg. Moreover, the CLHH with Liver microsome [3] worked out at 8.4 µL/min/g; in the data set on Liver microsome [9] it was 16.4 µL/min/g. In addition, the values for the CLHL in the data set on Liver microsome [3] and with Liver microsome [9] were 1.3 µL/min/mg and 3.7 µL/min/mg, respectively. In addition, the Km in data set [4] (read-out: KmH) amounted to 8.7 µM; in data set [4] (read-out: KmL), 1470 µM; in data set [8] (read-out: KmH) it was 36.7 µM; in data set [8] (read-out: KmL), 5880 µM.
